This passage reports IC50 results from patent US8575158B2, “1-phenyl-substituted heterocyclyl derivatives and their use as prostaglandin D2 receptor modulators” (Actelion Pharmaceuticals Ltd., priority 2010, dated 2013).

Molecules are shown by their SMILES.

In general, IC50 refers to the concentration needed to halve the response being measured.

In one test the target is T1, hCRTH2 receptor (Homo sapiens, UniProt Q9Y5Y4).
T1 construct: expressed in transfected cells; host or cells: HEK293
T1 sequence (Q9Y5Y4 1-395): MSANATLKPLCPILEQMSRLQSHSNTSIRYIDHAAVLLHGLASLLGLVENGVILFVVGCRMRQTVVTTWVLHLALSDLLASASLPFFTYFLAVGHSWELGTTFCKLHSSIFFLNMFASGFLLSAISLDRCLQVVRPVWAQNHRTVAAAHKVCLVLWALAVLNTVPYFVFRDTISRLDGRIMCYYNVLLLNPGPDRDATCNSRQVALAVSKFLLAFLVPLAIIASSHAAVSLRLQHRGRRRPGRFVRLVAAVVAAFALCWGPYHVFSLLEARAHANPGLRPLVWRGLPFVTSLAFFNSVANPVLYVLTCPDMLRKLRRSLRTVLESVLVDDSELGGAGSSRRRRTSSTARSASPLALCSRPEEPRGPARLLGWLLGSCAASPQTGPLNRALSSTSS
In words: Radioligand displacement assay (3H-PGD2) on hCRTH2 receptor membranes. To be noted: antagonistic activity, 3H-PGD2 radioligand displacement, HEK293-hCRTH2 membranes. Type of test: binding. The method, then: First, recombinant HEK293-hCRTH2 cells were detached from culture plates into 5 ml buffer A/plate (Buffer A: 5 mM Tris, 1 mM MgCl2-6H2O pH=7.4) using a rubber policeman. Cells were then transferred into centrifugation tubes and centrifuged for 5 min at 400 g. The cell pellet was resuspended in the same buffer and tubes were frozen at −80° C. Cells were thawed and membrane fragments were generated by homogenization using a polytron homogenizer (30 seconds). The membrane fragments were then centrifuged at 3000 g for 20 minutes and resuspended in buffer C (Buffer C: 75 mM Tris, 25 mM MgCl2, 250 mM Saccharose pH 7.4). Aliquots of membrane fragments were stored at −20° C.
Binding assay was performed in a final assay volume of 250 μl. First, 25 μl of test compound, previously diluted in Binding-Buffer (Binding-Buffer: 50 mM Tris-Base, 100 mM NaCl, 1 mM EDTA, 0.1% BSA (protease free), 0.01% NaN3, 10 mM MnCl2, pH 7.0) was placed into each well. After addition of 75 μl Binding-Buffer, 50 μl of the radioligand ^3H-PGD2 (at 2.5 nM (220.000 dpm/well) from ANAWA ART0662) was added to each well. Binding assay was started by addition of 100 μl CRTH2 membrane fragments, reaching a final concentration of 20 μg/well. For non-specific binding, PGD2 was added to the reaction mixture to […] final concentration.
This assay mix was incubated for 90 minutes at room temperature and then filtered through a GF/C filter 96-well plate which was pre-soaked for 3 hours in 0.5% polyethyleneimine (PEI). The filter-wells were washed three times with ice cold Binding-Buffer. Then, 40 μl of Microscint-40 (Packard) was added to each well and the retained radioactivity quantified in a Topcount (Packard).
On to `O=C(O)COc1ccc(Cl)cc1C1c2ccc(F)cc2CCN1C(=O)C1CC1c1ccccc1Cl` (mixture of isomers) [Example 430, (±)-(4-Chloro-2-{2-[2-(trans-2-chloro-phenyl)-cyclopropanecarbonyl]-6-fluoro-1,2,3,4-tetrahydro-isoquinolin-1-yl}-phenoxy)-acetic acid], for which the IC50 is 9.37 nM.

Staying with this test, now noted: antagonistic activity; 3H-PGD2 displacement on HEK293-hCRTH2 membrane fragments.
Compound `O=C(O)COc1ccc(F)cc1C1c2ccccc2CCN1C(=O)OCc1ccccc1` (racemic) [Example 1, (±)-1-(2-Carboxymethoxy-5-fluoro-phenyl)-3,4-dihydro-1H-isoquinoline-2-carboxylic acid benzyl ester] yielded an IC50 of 7.6 nM.

Consider `Cc1ccc(OCC(=O)O)c(C2c3ccccc3CCN2C(=O)OCc2ccccc2)c1` (racemic) [Example 3, (±)-1-(2-Carboxymethoxy-5-methyl-phenyl)-3,4-dihydro-1H-isoquinoline-2-carboxylic acid benzyl ester], for which the IC50 is 62.7 nM.

Consider `O=C(O)COc1ccc(Br)cc1C1c2ccccc2CCN1C(=O)OCc1ccccc1` (racemic) [Example 4, (±)-1-(5-Bromo-2-carboxymethoxy-phenyl)-3,4-dihydro-1H-isoquinoline-2-carboxylic acid benzyl ester], for which the IC50 is 10.5 nM.

In turn, `O=C(O)COc1ccc(F)cc1C1c2cc(Br)ccc2CCN1C(=O)OCc1ccccc1` (racemic) [Example 5, (±)-7-Bromo-1-(2-carboxymethoxy-5-fluoro-phenyl)-3,4-dihydro-1H-isoquinoline-2-carboxylic acid benzyl ester] had an IC50 of 81.2 nM.

With `O=C(O)COc1cc(F)c(F)cc1C1c2ccccc2CCN1C(=O)OCc1ccccc1` (racemic) [Example 6, (±)-1-(2-Carboxymethoxy-4,5-difluoro-phenyl)-3,4-dihydro-1H-isoquinoline-2-carboxylic acid benzyl ester], the IC50 was found to be 30.1 nM.

For `O=C(O)COc1ccc(F)cc1C1c2cccc(Br)c2CCN1C(=O)OCc1ccccc1` (racemic) [Example 7, (±)-5-Bromo-1-(2-carboxymethoxy-5-fluoro-phenyl)-3,4-dihydro-1H-isoquinoline-2-carboxylic acid benzyl ester], the 50% inhibitory concentration (IC50) came out at 7.9 nM.

In turn, `O=C(O)COc1ccc(F)cc1C1c2cc(F)c(F)cc2CCN1C(=O)OCc1ccccc1` (racemic) [Example 9, (±)-1-(2-Carboxymethoxy-5-fluoro-phenyl)-6,7-difluoro-3,4-dihydro-1H-isoquinoline-2-carboxylic acid benzyl ester] yielded an IC50 of 35.5 nM.

Consider `O=C(O)COc1ccc(Br)cc1C1c2cc(F)c(F)cc2CCN1C(=O)OCc1ccccc1` (racemic) [Example 10, (±)-1-(5-Bromo-2-carboxymethoxy-phenyl)-6,7-difluoro-3,4-dihydro-1H-isoquinoline-2-carboxylic acid benzyl ester], for which the IC50 is 74 nM.

The compound `N#Cc1ccc(OCC(=O)O)c(C2c3cc(F)c(F)cc3CCN2C(=O)OCc2ccccc2)c1` (racemic) [Example 11, (±)-1-(2-Carboxymethoxy-5-cyano-phenyl)-6,7-difluoro-3,4-dihydro-1H-isoquinoline-2-carboxylic acid benzyl ester] came in with an IC50 of 13.3 nM.

For `O=C(O)COc1ccc(F)cc1C1c2cccc(C(F)(F)F)c2CCN1C(=O)OCc1ccccc1` (racemic) [Example 12, (±)-1-(2-Carboxymethoxy-5-fluoro-phenyl)-5-trifluoromethyl-3,4-dihydro-1H-isoquinoline-2-carboxylic acid benzyl ester], the IC50 is 4.59 nM.

Compound `O=C(O)COc1ccc(F)cc1C1c2ccc(F)c(F)c2CCN1C(=O)OCc1ccccc1` (racemic) [Example 14, (±)-1-(2-Carboxymethoxy-5-fluoro-phenyl)-5,6-difluoro-3,4-dihydro-1H-isoquinoline-2-carboxylic acid benzyl ester] gave a 50% inhibitory concentration (IC50) of 18.8 nM.

Turning to `O=C(O)COc1ccc(Cl)cc1C1c2ccc(F)c(F)c2CCN1C(=O)OCc1ccccc1` (racemic) [Example 15, (±)-1-(2-Carboxymethoxy-5-chloro-phenyl)-5,6-difluoro-3,4-dihydro-1H-isoquinoline-2-carboxylic acid benzyl ester], the IC50 is 10.1 nM.

`N#Cc1ccc(OCC(=O)O)c(C2c3ccc(F)c(F)c3CCN2C(=O)OCc2ccccc2)c1` (racemic) [Example 16, (±)-1-(2-Carboxymethoxy-5-cyano-phenyl)-5,6-difluoro-3,4-dihydro-1H-isoquinoline-2-carboxylic acid benzyl ester] registered an IC50 of 4.34 nM.

In the case of `CN(C)S(=O)(=O)c1ccc(OCC(=O)O)c(C2c3ccccc3CCN2C(=O)OCc2ccccc2)c1` (racemic) [Example 17, (±)-1-(2-Carboxymethoxy-5-dimethylsulfamoyl-phenyl)-3,4-dihydro-1H-isoquinoline-2-carboxylic acid benzyl ester], the half-maximal inhibitory concentration (IC50) is 889 nM. Against the preceding compound, the IC50 is about 200-fold higher.

`O=C(O)COc1ccc(Cl)cc1C1c2cccc(F)c2CCN1C(=O)OCc1ccccc1` (racemic) [Example 18, (±)-1-(2-Carboxymethoxy-5-chloro-phenyl)-5-fluoro-3,4-dihydro-1H-isoquinoline-2-carboxylic acid benzyl ester] returned an IC50 of 5.43 nM.

As to `N#Cc1ccc(OCC(=O)O)c(C2c3cccc(F)c3CCN2C(=O)OCc2ccccc2)c1` (racemic) [Example 19, (±)-1-(2-Carboxymethoxy-5-cyano-phenyl)-5-fluoro-3,4-dihydro-1H-isoquinoline-2-carboxylic acid benzyl ester], the concentration for half-maximal inhibition (IC50) turned out to be 9.38 nM.

With `O=C(O)COc1ccc(C(F)(F)F)cc1C1c2ccccc2CCN1C(=O)OCc1ccccc1` (racemic) [Example 20, (±)-1-(2-Carboxymethoxy-5-trifluoromethyl-phenyl)-3,4-dihydro-1H-isoquinoline-2-carboxylic acid benzyl ester], the IC50 came out at 50.7 nM.

Consider `O=C(O)COc1ccc(Cl)cc1C1c2ccccc2CCN1C(=O)OCc1ccccc1` (racemic) [Example 21, (±)-1-(2-Carboxymethoxy-5-chloro-phenyl)-3,4-dihydro-1H-isoquinoline-2-carboxylic acid benzyl ester], for which the IC50 is 6.87 nM. This IC50 is about 7.4-fold lower than that of the compound before.

In turn, `CC(C)c1ccc(OCC(=O)O)c(C2c3ccccc3CCN2C(=O)OCc2ccccc2)c1` (racemic) [Example 22, (±)-1-(2-Carboxymethoxy-5-isopropyl-phenyl)-3,4-dihydro-1H-isoquinoline-2-carboxylic acid benzyl ester] displayed an IC50 of 483 nM.

Compound `O=C(O)COc1cc2c(cc1C1c3ccccc3CCN1C(=O)OCc1ccccc1)OCO2` (racemic) [Example 23, (±)-1-(6-Carboxymethoxy-benzo[1,3]dioxol-5-yl)-3,4-dihydro-1H-isoquinoline-2-carboxylic acid benzyl ester] had an IC50 of 227 nM. This IC50 lies about 2.1-fold lower than the previous one.

`COc1ccc(OCC(=O)O)c(C2c3ccccc3CCN2C(=O)OCc2ccccc2)c1` (racemic) [Example 24, (±)-1-(2-Carboxymethoxy-5-methoxy-phenyl)-3,4-dihydro-1H-isoquinoline-2-carboxylic acid benzyl ester] registered a 50% inhibitory concentration (IC50) of 83.7 nM. This IC50 is about 2.7-fold lower than that of the compound before.

For the compound `O=C(O)COc1c(F)cc(F)cc1C1c2ccccc2CCN1C(=O)OCc1ccccc1` (racemic) [Example 33, (±)-1-(2-Carboxymethoxy-3,5-difluoro-phenyl)-3,4-dihydro-1H-isoquinoline-2-carboxylic acid benzyl ester], the IC50 amounted to 196 nM.

For the compound `O=C(O)COc1ccc(F)cc1C1c2cccc(F)c2CCN1C(=O)OCc1ccccc1` (racemic) [Example 34, (±)-1-(2-Carboxymethoxy-5-fluoro-phenyl)-5-fluoro-3,4-dihydro-1H-isoquinoline-2-carboxylic acid benzyl ester], the half-maximal inhibitory concentration (IC50) was 7.22 nM.

For `COc1cccc2c1CCN(C(=O)OCc1ccccc1)C2c1cc(F)ccc1OCC(=O)O` (racemic) [Example 35, (±)-1-(2-Carboxymethoxy-5-fluoro-phenyl)-5-methoxy-3,4-dihydro-1H-isoquinoline-2-carboxylic acid benzyl ester], the IC50 is 19.7 nM.

With `COc1cc2c(cc1OC)C(c1cc(F)ccc1OCC(=O)O)N(C(=O)OCc1ccccc1)CC2` (racemic) [Example 36, (±)-1-(2-Carboxymethoxy-5-fluoro-phenyl)-6,7-dimethoxy-3,4-dihydro-1H-isoquinoline-2-carboxylic acid benzyl ester], the IC50 was 57.1 nM.
